Measurements as given in ChEMBL document CHEMBL1159186 (Bioorg Med Chem Lett, 1996).

What follows are compounds tested against Epidermal growth factor receptor (Homo sapiens, UniProt P00533) (assay: Inhibition of tyrosine kinase Epidermal growth factor receptor).
Sequence of Epidermal growth factor receptor (P00533 whole entry): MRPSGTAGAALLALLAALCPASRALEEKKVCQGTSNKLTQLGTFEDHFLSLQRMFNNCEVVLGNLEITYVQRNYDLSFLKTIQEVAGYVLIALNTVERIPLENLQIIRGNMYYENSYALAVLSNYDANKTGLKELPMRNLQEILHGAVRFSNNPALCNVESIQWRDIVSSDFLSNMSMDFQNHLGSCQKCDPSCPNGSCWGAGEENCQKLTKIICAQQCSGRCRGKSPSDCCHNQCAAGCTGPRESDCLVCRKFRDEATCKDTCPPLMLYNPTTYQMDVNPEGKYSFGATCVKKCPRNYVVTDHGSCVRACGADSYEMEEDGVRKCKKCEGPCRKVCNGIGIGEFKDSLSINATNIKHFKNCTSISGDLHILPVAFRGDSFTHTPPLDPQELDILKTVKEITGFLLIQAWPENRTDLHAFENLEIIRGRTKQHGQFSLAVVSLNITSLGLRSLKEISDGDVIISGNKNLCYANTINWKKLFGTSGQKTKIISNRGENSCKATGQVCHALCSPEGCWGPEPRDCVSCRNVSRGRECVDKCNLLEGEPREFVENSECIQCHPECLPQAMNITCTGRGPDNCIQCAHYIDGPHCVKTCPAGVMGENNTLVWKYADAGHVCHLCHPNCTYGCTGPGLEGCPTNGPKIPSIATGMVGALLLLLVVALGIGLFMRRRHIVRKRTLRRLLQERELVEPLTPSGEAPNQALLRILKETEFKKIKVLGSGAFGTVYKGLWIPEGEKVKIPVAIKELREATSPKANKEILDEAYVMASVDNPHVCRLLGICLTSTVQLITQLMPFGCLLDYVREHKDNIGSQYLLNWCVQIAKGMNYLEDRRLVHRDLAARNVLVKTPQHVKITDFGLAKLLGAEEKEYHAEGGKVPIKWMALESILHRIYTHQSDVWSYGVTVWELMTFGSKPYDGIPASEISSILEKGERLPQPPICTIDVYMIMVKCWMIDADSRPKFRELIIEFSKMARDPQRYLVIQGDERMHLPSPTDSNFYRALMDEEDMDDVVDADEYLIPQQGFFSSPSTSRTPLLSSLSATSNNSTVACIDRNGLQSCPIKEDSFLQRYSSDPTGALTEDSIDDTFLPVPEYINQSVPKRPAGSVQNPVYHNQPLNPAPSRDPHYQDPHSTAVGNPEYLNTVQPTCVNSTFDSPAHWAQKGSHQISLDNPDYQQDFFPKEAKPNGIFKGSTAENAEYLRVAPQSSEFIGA
`Cc1ccc(NC(=O)c2ccc3ccccc3c2)cc1Nc1nccc(-c2cccnc2)n1` was tested, and the IC50 was over 100 µM.
For `Cc1ccc([N+](=O)[O-])cc1Nc1nccc(-c2cccnc2)n1`, the IC50 was over 100 µM.
Work on `Cc1ccc(C(=O)Nc2ccc(C)c(Nc3nccc(-c4cccnc4)n3)c2)cc1` yielded an IC50 of over 100 µM.
`Cc1ccc(NC(=O)c2ccccc2)cc1Nc1nccc(-c2cccs2)n1` was tested, and the IC50 was over 100 µM.
Compound `Cc1ccc(NC(=O)c2ccccc2)cc1Nc1nccc(-c2ccc[n+]([O-])c2)n1` has an IC50 of over 100 µM.
With `COc1ccc(NC(=O)c2ccccc2)cc1Nc1nccc(-c2cccnc2)n1` the IC50 was over 100 µM.
With `Cc1ccc(NC(=O)c2ccc(Cl)cc2)cc1Nc1nccc(-c2cccnc2)n1` the IC50 was over 100 µM.
`CNc1ccc(C)c(Nc2nccc(-c3cccnc3)n2)c1` was tested, and the IC50 was over 100 µM.
`Cc1ccc(N(C(=O)c2ccccc2)C(=O)c2ccccc2)cc1Nc1nccc(-c2cccnc2)n1` gave an IC50 of 75 µM.
`O=C(Nc1cccc(Nc2nccc(-c3cccnc3)n2)c1)c1ccccc1` gave an IC50 of over 50 µM.
`Cc1ccc(N)cc1Nc1nccc(-c2cccnc2)n1` showed an IC50 of over 100 µM.
With `Cc1ccc(N(C)C(=O)c2ccccc2)cc1Nc1nccc(-c2cccnc2)n1` the IC50 was 49 µM.
With `O=C(Nc1ccc(Cl)c(Nc2nccc(-c3cccnc3)n2)c1)c1ccccc1` the IC50 was over 100 µM.
Compound `COc1ccccc1C(=O)Nc1ccc(C)c(Nc2nccc(-c3cccnc3)n2)c1` has an IC50 of over 100 µM.
`CC(=O)Nc1ccc(C)c(Nc2nccc(-c3cccnc3)n2)c1` was tested, and the IC50 was over 100 µM.

These compounds were tested against cAMP-dependent protein kinase (PKA) (Homo sapiens, UniProt P22694+P17612+P22612) (assay: Inhibition of serine/threonine kinase(PKA)).
Format: protein assay, Oryctolagus cuniculus
`Cc1ccc(NC(=O)c2ccc3ccccc3c2)cc1Nc1nccc(-c2cccnc2)n1` showed an IC50 of over 100 µM.
In the case of `Cc1ccc([N+](=O)[O-])cc1Nc1nccc(-c2cccnc2)n1`, the IC50 is reported as over 500 µM.
Compound `Cc1ccc(C(=O)Nc2ccc(C)c(Nc3nccc(-c4cccnc4)n3)c2)cc1` has an IC50 of over 100 µM.
Compound `Cc1ccc(NC(=O)c2ccccc2)cc1Nc1nccc(-c2cccnc2)n1` has an IC50 of over 500 µM.
`Cc1ccc(NC(=O)c2ccccc2)cc1Nc1nccc(-c2cccs2)n1` was tested, and the IC50 was over 500 µM.
For `Cc1ccc(NC(=O)c2ccccc2)cc1Nc1nccc(-c2ccc[n+]([O-])c2)n1`, the IC50 was over 500 µM.
`COc1ccc(NC(=O)c2ccccc2)cc1Nc1nccc(-c2cccnc2)n1` gave an IC50 of over 500 µM.
`Cc1ccc(NC(=O)c2ccc(Cl)cc2)cc1Nc1nccc(-c2cccnc2)n1` gave an IC50 of over 100 µM.
`CNc1ccc(C)c(Nc2nccc(-c3cccnc3)n2)c1` was tested, and the IC50 was over 500 µM.
`Cc1ccc(N(C(=O)c2ccccc2)C(=O)c2ccccc2)cc1Nc1nccc(-c2cccnc2)n1` gave an IC50 of over 500 µM.
In the case of `O=C(Nc1cccc(Nc2nccc(-c3cccnc3)n2)c1)c1ccccc1`, the IC50 is reported as over 500 µM.
`Cc1ccc(N)cc1Nc1nccc(-c2cccnc2)n1` gave an IC50 of over 500 µM.
Work on `Cc1ccc(N(C)C(=O)c2ccccc2)cc1Nc1nccc(-c2cccnc2)n1` yielded an IC50 of over 500 µM.
With `O=C(Nc1ccc(Cl)c(Nc2nccc(-c3cccnc3)n2)c1)c1ccccc1` the IC50 was over 500 µM.
Compound `COc1ccccc1C(=O)Nc1ccc(C)c(Nc2nccc(-c3cccnc3)n2)c1` has an IC50 of over 500 µM.
Compound `CC(=O)Nc1ccc(C)c(Nc2nccc(-c3cccnc3)n2)c1` has an IC50 of over 500 µM.

What follows are compounds tested against Protein kinase C alpha type (Homo sapiens, UniProt P17252) (assay: Inhibition of serine/threonine kinase(PKC-alpha)).
Design: species or system Sus scrofa
Compound `Cc1ccc(NC(=O)c2ccc3ccccc3c2)cc1Nc1nccc(-c2cccnc2)n1` has an IC50 of over 100 µM.
For `Cc1ccc([N+](=O)[O-])cc1Nc1nccc(-c2cccnc2)n1`, the IC50 was over 500 µM.
With `Cc1ccc(C(=O)Nc2ccc(C)c(Nc3nccc(-c4cccnc4)n3)c2)cc1` the IC50 was over 100 µM.
`Cc1ccc(NC(=O)c2ccccc2)cc1Nc1nccc(-c2cccnc2)n1` was tested, and the IC50 was 72 µM.
Work on `Cc1ccc(NC(=O)c2ccccc2)cc1Nc1nccc(-c2cccs2)n1` yielded an IC50 of over 100 µM.
`Cc1ccc(NC(=O)c2ccccc2)cc1Nc1nccc(-c2ccc[n+]([O-])c2)n1` gave an IC50 of over 100 µM.
`COc1ccc(NC(=O)c2ccccc2)cc1Nc1nccc(-c2cccnc2)n1` was tested, and the IC50 was 10 µM.
Compound `Cc1ccc(NC(=O)c2ccc(Cl)cc2)cc1Nc1nccc(-c2cccnc2)n1` has an IC50 of over 100 µM.
Work on `CNc1ccc(C)c(Nc2nccc(-c3cccnc3)n2)c1` yielded an IC50 of 71 µM.
`Cc1ccc(N(C(=O)c2ccccc2)C(=O)c2ccccc2)cc1Nc1nccc(-c2cccnc2)n1` was tested, and the IC50 was over 100 µM.
For `O=C(Nc1cccc(Nc2nccc(-c3cccnc3)n2)c1)c1ccccc1`, the IC50 was 1.2 µM.
For `Cc1ccc(N)cc1Nc1nccc(-c2cccnc2)n1`, the IC50 was over 100 µM.
In the case of `Cc1ccc(N(C)C(=O)c2ccccc2)cc1Nc1nccc(-c2cccnc2)n1`, the IC50 is reported as 85 µM.
`O=C(Nc1ccc(Cl)c(Nc2nccc(-c3cccnc3)n2)c1)c1ccccc1` was tested, and the IC50 was over 100 µM.
`COc1ccccc1C(=O)Nc1ccc(C)c(Nc2nccc(-c3cccnc3)n2)c1` gave an IC50 of over 100 µM.
In the case of `CC(=O)Nc1ccc(C)c(Nc2nccc(-c3cccnc3)n2)c1`, the IC50 is reported as over 100 µM.

These compounds were tested against Platelet-derived growth factor receptor (Homo sapiens, UniProt P09619+P16234) (assay: Inhibition of tyrosine kinase(PDGF-R)).
Format: protein-complex assay
Compound `Cc1ccc(NC(=O)c2ccc3ccccc3c2)cc1Nc1nccc(-c2cccnc2)n1` has an IC50 of 0.05 µM.
With `Cc1ccc([N+](=O)[O-])cc1Nc1nccc(-c2cccnc2)n1` the IC50 was over 100 µM.
In the case of `Cc1ccc(C(=O)Nc2ccc(C)c(Nc3nccc(-c4cccnc4)n3)c2)cc1`, the IC50 is reported as 0.01 µM.
Compound `Cc1ccc(NC(=O)c2ccccc2)cc1Nc1nccc(-c2cccs2)n1` has an IC50 of over 10 µM.
With `Cc1ccc(NC(=O)c2ccccc2)cc1Nc1nccc(-c2ccc[n+]([O-])c2)n1` the IC50 was over 10 µM.
`COc1ccc(NC(=O)c2ccccc2)cc1Nc1nccc(-c2cccnc2)n1` was tested, and the IC50 was over 10 µM.
With `Cc1ccc(NC(=O)c2ccc(Cl)cc2)cc1Nc1nccc(-c2cccnc2)n1` the IC50 was 0.01 µM.
In the case of `CNc1ccc(C)c(Nc2nccc(-c3cccnc3)n2)c1`, the IC50 is reported as over 10 µM.
Work on `Cc1ccc(N(C(=O)c2ccccc2)C(=O)c2ccccc2)cc1Nc1nccc(-c2cccnc2)n1` yielded an IC50 of 2.5 µM.
Compound `O=C(Nc1cccc(Nc2nccc(-c3cccnc3)n2)c1)c1ccccc1` has an IC50 of 5 µM.
For `Cc1ccc(N)cc1Nc1nccc(-c2cccnc2)n1`, the IC50 was over 10 µM.
With `Cc1ccc(N(C)C(=O)c2ccccc2)cc1Nc1nccc(-c2cccnc2)n1` the IC50 was over 100 µM.
With `O=C(Nc1ccc(Cl)c(Nc2nccc(-c3cccnc3)n2)c1)c1ccccc1` the IC50 was 0.15 µM.
`COc1ccccc1C(=O)Nc1ccc(C)c(Nc2nccc(-c3cccnc3)n2)c1` showed an IC50 of 0.3 µM.
Compound `CC(=O)Nc1ccc(C)c(Nc2nccc(-c3cccnc3)n2)c1` has an IC50 of 50 µM.

What follows are compounds tested against Protein kinase C delta type (Homo sapiens, UniProt Q05655) (assay: Inhibition of serine/threonine kinase(PKC-delta)).
Sequence of Protein kinase C delta type (Q05655 whole entry): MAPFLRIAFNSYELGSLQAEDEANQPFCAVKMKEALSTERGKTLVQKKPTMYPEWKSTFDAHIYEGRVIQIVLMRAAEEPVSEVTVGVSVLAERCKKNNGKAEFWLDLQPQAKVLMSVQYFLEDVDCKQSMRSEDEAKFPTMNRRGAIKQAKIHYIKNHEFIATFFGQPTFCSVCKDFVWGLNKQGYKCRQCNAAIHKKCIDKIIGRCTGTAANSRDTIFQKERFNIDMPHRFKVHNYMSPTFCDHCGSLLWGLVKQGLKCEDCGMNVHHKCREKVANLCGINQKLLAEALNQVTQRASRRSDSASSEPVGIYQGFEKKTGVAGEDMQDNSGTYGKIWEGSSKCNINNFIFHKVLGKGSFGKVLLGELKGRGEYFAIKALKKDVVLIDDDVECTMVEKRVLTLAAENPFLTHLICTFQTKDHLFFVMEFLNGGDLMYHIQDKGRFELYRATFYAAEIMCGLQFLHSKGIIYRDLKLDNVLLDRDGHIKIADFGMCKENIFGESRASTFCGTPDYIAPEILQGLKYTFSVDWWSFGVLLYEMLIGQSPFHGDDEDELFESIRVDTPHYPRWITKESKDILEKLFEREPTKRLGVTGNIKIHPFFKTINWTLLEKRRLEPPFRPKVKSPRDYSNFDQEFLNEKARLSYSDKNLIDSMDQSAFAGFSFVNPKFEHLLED
Design: species or system Sus scrofa
`Cc1ccc(NC(=O)c2ccc3ccccc3c2)cc1Nc1nccc(-c2cccnc2)n1` was tested, and the IC50 was over 500 µM.
`Cc1ccc([N+](=O)[O-])cc1Nc1nccc(-c2cccnc2)n1` gave an IC50 of over 500 µM.
With `Cc1ccc(C(=O)Nc2ccc(C)c(Nc3nccc(-c4cccnc4)n3)c2)cc1` the IC50 was over 500 µM.
Work on `Cc1ccc(NC(=O)c2ccccc2)cc1Nc1nccc(-c2cccnc2)n1` yielded an IC50 of over 500 µM.
Work on `Cc1ccc(NC(=O)c2ccccc2)cc1Nc1nccc(-c2cccs2)n1` yielded an IC50 of over 100 µM.
With `Cc1ccc(NC(=O)c2ccccc2)cc1Nc1nccc(-c2ccc[n+]([O-])c2)n1` the IC50 was over 100 µM.
With `COc1ccc(NC(=O)c2ccccc2)cc1Nc1nccc(-c2cccnc2)n1` the IC50 was over 100 µM.
In the case of `Cc1ccc(NC(=O)c2ccc(Cl)cc2)cc1Nc1nccc(-c2cccnc2)n1`, the IC50 is reported as over 500 µM.
In the case of `CNc1ccc(C)c(Nc2nccc(-c3cccnc3)n2)c1`, the IC50 is reported as over 100 µM.
`Cc1ccc(N(C(=O)c2ccccc2)C(=O)c2ccccc2)cc1Nc1nccc(-c2cccnc2)n1` showed an IC50 of over 100 µM.
For `O=C(Nc1cccc(Nc2nccc(-c3cccnc3)n2)c1)c1ccccc1`, the IC50 was 23 µM.
`Cc1ccc(N)cc1Nc1nccc(-c2cccnc2)n1` showed an IC50 of over 500 µM.
With `Cc1ccc(N(C)C(=O)c2ccccc2)cc1Nc1nccc(-c2cccnc2)n1` the IC50 was over 100 µM.
With `O=C(Nc1ccc(Cl)c(Nc2nccc(-c3cccnc3)n2)c1)c1ccccc1` the IC50 was over 100 µM.
Work on `COc1ccccc1C(=O)Nc1ccc(C)c(Nc2nccc(-c3cccnc3)n2)c1` yielded an IC50 of over 500 µM.
In the case of `CC(=O)Nc1ccc(C)c(Nc2nccc(-c3cccnc3)n2)c1`, the IC50 is reported as over 500 µM.

Each compound was assayed against Proto-oncogene tyrosine-protein kinase Src (Homo sapiens, UniProt P12931) (assay: Inhibition of tyrosine kinase(c-Src)).
Sequence of Proto-oncogene tyrosine-protein kinase Src (P12931 2-536 limits assumed): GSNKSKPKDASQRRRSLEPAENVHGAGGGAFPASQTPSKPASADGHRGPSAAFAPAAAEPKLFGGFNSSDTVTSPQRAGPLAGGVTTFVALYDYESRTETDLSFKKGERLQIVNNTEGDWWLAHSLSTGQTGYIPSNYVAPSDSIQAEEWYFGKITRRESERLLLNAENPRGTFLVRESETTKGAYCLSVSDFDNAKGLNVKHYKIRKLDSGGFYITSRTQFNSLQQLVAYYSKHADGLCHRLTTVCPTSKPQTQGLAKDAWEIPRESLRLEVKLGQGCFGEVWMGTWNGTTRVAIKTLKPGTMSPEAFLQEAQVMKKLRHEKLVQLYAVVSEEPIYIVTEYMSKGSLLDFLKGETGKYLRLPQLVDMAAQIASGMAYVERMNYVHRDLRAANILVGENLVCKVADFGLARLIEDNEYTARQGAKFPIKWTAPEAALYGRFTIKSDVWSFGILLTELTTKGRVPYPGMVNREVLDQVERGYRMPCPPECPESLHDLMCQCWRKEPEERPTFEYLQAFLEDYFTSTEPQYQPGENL
With `Cc1ccc(NC(=O)c2ccc3ccccc3c2)cc1Nc1nccc(-c2cccnc2)n1` the IC50 was over 100 µM.
`Cc1ccc([N+](=O)[O-])cc1Nc1nccc(-c2cccnc2)n1` gave an IC50 of over 100 µM.
`Cc1ccc(C(=O)Nc2ccc(C)c(Nc3nccc(-c4cccnc4)n3)c2)cc1` was tested, and the IC50 was over 100 µM.
Work on `Cc1ccc(NC(=O)c2ccccc2)cc1Nc1nccc(-c2cccs2)n1` yielded an IC50 of over 100 µM.
In the case of `Cc1ccc(NC(=O)c2ccc(Cl)cc2)cc1Nc1nccc(-c2cccnc2)n1`, the IC50 is reported as over 100 µM.
`O=C(Nc1cccc(Nc2nccc(-c3cccnc3)n2)c1)c1ccccc1` gave an IC50 of 15.7 µM.
`Cc1ccc(N)cc1Nc1nccc(-c2cccnc2)n1` showed an IC50 of over 100 µM.
With `COc1ccccc1C(=O)Nc1ccc(C)c(Nc2nccc(-c3cccnc3)n2)c1` the IC50 was over 100 µM.
Work on `CC(=O)Nc1ccc(C)c(Nc2nccc(-c3cccnc3)n2)c1` yielded an IC50 of over 100 µM.
